Reference: patent US20180303809A1, “TREATMENT OF BURN PAIN BY TRPV1 MODULATORS” (Purdue Pharma L.P., priority 2013, published 2018)

Tests used:
Assay type in all cases: in vivo, rat
male Sprague-Dawley rats [1] = assay: Plantar test, thermal hyperalgesia (PWL) in thermal burn pain model; conditions: rat burn injury 50° C. 48 s
Description: (§1) Test Animals: Each experiment used male Sprague-Dawley rats weighing between 190-260 g at the time of thermal burn injury. The rats were housed two per cage, and were allowed to acclimate to their environment for at least six days before testing began. The rats had free access to food and water at all times, except during testing and prior to oral (PO) administration of a test compound, when food was removed about 16 hours before dosing. The rats were divided into treatment groups, and one of the following compounds was administered to each group at the dose and by the route of administration indicated in Tables 5.2A to 5.2C, 5.3A and 5.3B, and 5.4A and 5.4B: ketorolac (Sigma-Aldrich, St. Louis, Mo.), AMG 517 (selective TRPV1 antagonist described in Em. Doherty et al., “Novel vanilloid receptor-1 antagonists:2. Structure-activity relationships of 4-oxopyrimidines leading to the selection of a clinical candidate,” J Med Chem 50:3515-3527 (2007).) (Purdue Pharma L. P., Cranbury, N.J.), indomethacin (Alexis Biochemicals, Farmingdale, N.Y.), gabapentin (Bosche Scientific, New Brunswick, N.J.), or (S)-3-chloro-5-(1,2-dihydroxyethyl)-N-(5-(trifluoromethyl)pyridin-2-yl)-5′,6′-dihydro-[2,4′-bipyridine]-1′(2′H)-carboxamide (Compound 1). The control groups were administered the vehicle for the compound of formula (I). The volume of administration for PO treatment was 5 ml/kg, and was the same for all treatment groups. Volume of administration for intraperitoneal (i.p.) drug administration was 2 ml/kg.
(§2) To assess the actions of a compound of formula (I) for the treatment or prevention of burn pain, a model of thermal burn pain was used. A thermal burn injury was induced under isofluorane/O2 inhalation anesthesia. To assess mechanical hyperalgesia and weight bearing, a thermal injury was produced by immersing the left hind paw into water maintained at 55° C. for 24 seconds. The left hind paw of non-injured control animals was immersed in 22° C. water for 24 seconds. To assess thermal hyperalgesia, a thermal injury was produced by immersing the left hindpaw into water maintained at 50° C. for 48 seconds; the left hind-paw of non-injured control animals was immersed in 22° C. water for 48 seconds. The animals were assessed for response to noxious mechanical stimuli by determining PWT for mechanical hyperalgesia, weight bearing difference between the injured or non-injured side, or response to noxious thermal stimuli by determining PWL for thermal hyperalgesia, all as described below, prior to drug administration (baseline), then again at 1, 3 and 5 hours after induction of burn injury.
The plantar test was used to assess thermal hyperalgesia. For this test, hind paw withdrawal latencies (PWL) to a noxious thermal stimulus were determined using a plantar test apparatus (commercially available from Ugo Basile of Italy) following the technique described by K. Hargreaves et al., “A New and Sensitive Method for Measuring Thermal Nociception in Cutaneous Hyperalgesia,” Pain 32(1):77-88 (1988). The maximum exposure time was set at 32 seconds to avoid tissue damage and any directed paw withdrawal from the heat source is taken as the end point. Three latencies were determined at each time point and averaged.

male Sprague-Dawley rats [2] = assay: Paw pressure assay, mechanical hyperalgesia (PWT) in thermal burn pain model; conditions: rat burn injury 55° C. 24 s, 10 mg/kg PO
Description: as §1, §2
The paw pressure assay was used to assess mechanical hyperalgesia. For this assay, hind paw withdrawal thresholds (PWT) to a noxious mechanical stimulus were determined using an analgesimeter (Model 7200, commercially available from Ugo Basile of Italy) as described in C. Stein, “Unilateral Inflammation of the Hindpaw in Rats as a Model of Prolonged Noxious Stimulation: Alterations in Behavior and Nociceptive Thresholds,” Pharmacol. Biochem. and Behavior 31:451-455 (1988). The rat's paw was placed on a small platform, and weight was applied in a graded manner up to a maximum of 250 grams. The endpoint was taken as the weight at which the paw was completely withdrawn. PWT was determined once for each rat at each time point, wherein the affected (ipsilateral; same side as the injury) rear paw was tested. […] All drug treatment groups were compared to the vehicle control group (i.e. injured, administered only the vehicle).

male Sprague-Dawley rats [3] = assay: Hind limb weight bearing (incapacitance meter, % WL) in thermal burn pain model; conditions: rat burn injury 55° C. 24 s, 10 mg/kg PO
Description: as §1, §2
A commercially available incapacitance meter was used to determine the weight distribution on the two hind paws of the animal (Linton Incapacitance Tester (Linton Instrumentation, Norfolk, UK)). The weight bearing difference (WBD) between the injured and non-injured hindpaw was measured. The animal was placed in the testing chamber that allows the animal to stand normally, distributing its body weight on the hind limbs for the test. Each hind paw was positioned on a separate pressure sensitive pad, which independently measures the pressure applied by each limb. The device continuously collects data after either a force threshold has been exceeded, or the investigator depresses the start pad. Rats were allowed to acclimate when placed on the apparatus, and when they were stationary, the force exerted was then continuously monitored for 3 s. The endpoint was the amount of pressure applied to each limb over time. Three readings were taken for each rat at each time point, and the average used for data analysis. WBD was expressed as “% WL”, i.e. the percentage of weight borne on the burn-injured left hind paw, using the following formula: […]
where WLP is the weight on the left hind paw and WRP is the weight on the right (untreated) hind paw. The 50% value of % WL corresponds to an equal weight distribution across both hind paws. […]

[4] = 10 mg/kg PO, 1 h after administration
[5] = 10 mg/kg PO, 3 h after administration
[6] = 10 mg/kg PO, 5 h after administration
[7] = 30 mg/kg PO, 1 h after administration
[8] = 30 mg/kg PO, 3 h after administration
[9] = 30 mg/kg PO, 5 h after administration
[10] = baseline (prior to drug administration)

## O=C(c1ccccc1)c1ccc2n1CCC2C(=O)O (stereo not shown) [Ketorolac, ketorolac]
Male Sprague-Dawley rats [1]; [4]
  % Change from Baseline (mean ± S.E.M.) of Paw Withdrawal Latency: −22.3 ± 6.30%
  Paw Withdrawal Latency (sec) (mean ± S.E.M.): 9.2 ± 0.96 s
Male Sprague-Dawley rats [1]; [5]
  % Change from Baseline (mean ± S.E.M.) of Paw Withdrawal Latency: −6.7 ± 5.55%
  Paw Withdrawal Latency (sec) (mean ± S.E.M.): 11.9 ± 1.27 s
Male Sprague-Dawley rats [1]; [6]
  % Change from Baseline (mean ± S.E.M.) of Paw Withdrawal Latency: −10.2 ± 3.05%
  Paw Withdrawal Latency (sec) (mean ± S.E.M.): 11.4 ± 0.54 s
Male Sprague-Dawley rats [1]; 10 mg/kg PO, baseline (prior to drug administration)
  Paw Withdrawal Latency (sec) (mean ± S.E.M.): 13.2 ± 0.72 s
Male Sprague-Dawley rats [1]; [7]
  % Change from Baseline (mean ± S.E.M.) of Paw Withdrawal Latency: −47.6 ± 19.35%
  Paw Withdrawal Latency (sec) (mean ± S.E.M.): 8.5 ± 0.89 s
Male Sprague-Dawley rats [1]; [8]
  % Change from Baseline (mean ± S.E.M.) of Paw Withdrawal Latency: −24.0 ± 19.85%
  Paw Withdrawal Latency (sec) (mean ± S.E.M.): 12.6 ± 1.33 s
Male Sprague-Dawley rats [1]; [9]
  % Change from Baseline (mean ± S.E.M.) of Paw Withdrawal Latency: −10.2 ± 12.40%
  Paw Withdrawal Latency (sec) (mean ± S.E.M.): 14.3 ± 0.80 s
Male Sprague-Dawley rats [1]; 30 mg/kg PO, baseline (prior to drug administration)
  Paw Withdrawal Latency (sec) (mean ± S.E.M.): 14.7 ± 1.29 s
Male Sprague-Dawley rats [2]; 1 h after administration
  % Decrease from Baseline (mean ± S.E.M.) of Paw Withdrawal Threshold: 66 ± 2.2%
  Paw Withdrawal Threshold (g) (mean ± S.E.M.): 84 ± 6.1 g
Male Sprague-Dawley rats [2]; 3 h after administration
  % Decrease from Baseline (mean ± S.E.M.) of Paw Withdrawal Threshold: 60 ± 3.8%
  Paw Withdrawal Threshold (g) (mean ± S.E.M.): 97 ± 7.5 g
Male Sprague-Dawley rats [2]; 5 h after administration
  % Decrease from Baseline (mean ± S.E.M.) of Paw Withdrawal Threshold: 63 ± 34%
  Paw Withdrawal Threshold (g) (mean ± S.E.M.): 91 ± 7.1 g
Male Sprague-Dawley rats [2]; [10]
  Paw Withdrawal Threshold (g) (mean ± S.E.M.): 246 ± 4.5 g
Male Sprague-Dawley rats [3]; 1 h after administration
  % WL (mean ± S.E.M.), percentage of weight borne on the burn-injured left hind paw: 50.0 ± 2.20 %
Male Sprague-Dawley rats [3]; 3 h after administration
  % WL (mean ± S.E.M.), percentage of weight borne on the burn-injured left hind paw: 42.6 ± 1.91%
Male Sprague-Dawley rats [3]; 5 h after administration
  % WL (mean ± S.E.M.), percentage of weight borne on the burn-injured left hind paw: 40.1 ± 2.72%
Male Sprague-Dawley rats [3]; [10]
  % WL (mean ± S.E.M.), percentage of weight borne on the burn-injured left hind paw: 49.8 ± 0.31%
